Laboratory results reported in patent US20100048544A1, “PYRROLO (3, 2, 1-IJ) QUINOLINE-4-ONE-DERIVATIVES FOR TREATING TUBERCULOSIS” (priority 2007, published 2010).

tested on: Mycobacterium tuberculosis H37Rv; test: Mycobacterium tuberculosis H37Rv inhibition assay (MIC, microtiter plate, alamar blue); assay type: cell-based; conditions: ATCC 25618 / H37Rv, H37Rv strain (ATCC25618), Middlebrook 7H9, 37° C. six days, alamar blue fluorescence after 48 hours, read-out: MIC value

SMILES | MIC [µg/mL]
O=C1COc2ccc(CNC[C@H]3CCN(CC4Cn5c(=O)ccc6ccc(F)c4c65)C3)nc2N1 (stereo partly drawn) [Example 35, 9-Fluoro-1-{[(3R)-3-({[(3-oxo-3,4-dihydro-2H-pyrido[3,2-b][1,4]oxazin-6-yl)methyl]amino}methyl)-1-pyrrolidinyl]methyl}-1,2-dihydro-4H-pyrrolo[3,2,1-ij]quinolin-4-one] | ≤ 4
O=c1ccc2ccc(F)c3c2n1CC3(O)CN1CCC(NCc2cc3c(nn2)OCCS3)CC1 (centres unmarked) [Example 29, 1-({4-[(6,7-Dihydro[1,4]oxathiino[2,3-c]pyridazin-3-ylmethyl)amino]-1-piperidinyl}methyl)-9-fluoro-1-hydroxy-1,2-dihydro-4H-pyrrolo[3,2,1-ij]quinolin-4-one] | ≤ 4
O=c1ccc2ccc(F)c3c2n1CC3CN1CCC(NCc2cc3c(cn2)OCCO3)CC1 (centres unmarked) [Example 2, 1-({4-[(2,3-Dihydro[1,4]dioxino[2,3-c]pyridin-7-ylmethyl)amino]-1-piperidinyl}methyl)-9-fluoro-1,2-dihydro-4H-pyrrolo[3,2,1-ij]quinolin-4-one] | ≤ 4
O=c1ccc2ccc(F)c3c2n1CC3CN1CCC(NCc2ccc3c(c2)C(O)CCC3)CC1 (centres unmarked) [Example 75, 9-fluoro-1-[(4-{[(8-hydroxy-5,6,7,8-tetrahydro-2-naphthalenyl)methyl]amino}-1-piperidinyl)methyl]-1,2-dihydro-4H-pyrrolo[3,2,1-ij]quinolin-4-one] | ≤ 4
O=C1COc2cc(Cl)c(CNC[C@H]3CCN(CC4Cn5c(=O)ccc6ccc(F)c4c65)C3)nc2N1 (stereo partly drawn) [Example 33, 1-{[(3R)-3-({[(7-Chloro-3-oxo-3,4-dihydro-2H-pyrido [3,2-b][1,4]oxazin-6-yl)methyl]amino}methyl)-1-pyrrolidinyl]methyl}-9-fluoro-1,2-dihydro-4H-pyrrolo[3,2,1-ij]quinolin-4-one] | ≤ 4

same assay, conditions: ATCC 25618 / H37Rv, read-out: MIC value, H37Rv strain (ATCC25618), Middlebrook 7H9, 37° C. six days, alamar blue fluorescence after 48 hours

SMILES | MIC [µg/mL]
O=c1ccc2ccc(F)c3c2n1CC3CN1CC[C@H](NCc2cc3c(cn2)OCC3)[C@H](O)C1 (stereo partly drawn) [Example 8, 1-({(3R,4S)-4-[(2,3-Dihydrofuro[2,3-c]pyridin-5-ylmethyl)amino]-3-hydroxy-1-piperidinyl}methyl)-9-fluoro-1,2-dihydro-4H-pyrrolo [3,2,1-ij]quinolin-4-one] | ≤ 4
O=c1ccc2ccc(F)c3c2n1C[C@H]3CN1CCC(NCc2ccc3c(c2F)OCCO3)CC1 [Example 80, (1R)-9-fluoro-1-[(4-{[(5-fluoro-2,3-dihydro-1,4-benzodioxin-6-yl)methyl]amino}-1-piperidinyl)methyl]-1,2-dihydro-4H-pyrrolo[3,2,1-ij]quinolin-4-one] | ≤ 4
O=c1ccc2ccc(F)c3c2n1CC3CN1CCC(NCc2cnc3c(c2)OCCO3)CC1 (centres unmarked) [Example 22, 1-({4-[(2,3-dihydro[1,4]dioxino[2,3-b]pyridin-7-ylmethyl)amino]-1-piperidinyl}methyl)-9-fluoro-1,2-dihydro-4H-pyrrolo[3,2,1-ij]quinolin-4-one] | ≤ 4
